Among the data in ChEMBL document CHEMBL5291721, “A preclinical secondary pharmacology resource illuminates target-adverse drug reaction associations of marketed drugs” (Nat Commun, 2023) are AC50 values, retold here.

Bounds are passed on as bounds.

For test [1], the target named is T1, Alpha-1A adrenergic receptor (Homo sapiens, UniProt P35348).
T1 sequence (P35348 whole entry): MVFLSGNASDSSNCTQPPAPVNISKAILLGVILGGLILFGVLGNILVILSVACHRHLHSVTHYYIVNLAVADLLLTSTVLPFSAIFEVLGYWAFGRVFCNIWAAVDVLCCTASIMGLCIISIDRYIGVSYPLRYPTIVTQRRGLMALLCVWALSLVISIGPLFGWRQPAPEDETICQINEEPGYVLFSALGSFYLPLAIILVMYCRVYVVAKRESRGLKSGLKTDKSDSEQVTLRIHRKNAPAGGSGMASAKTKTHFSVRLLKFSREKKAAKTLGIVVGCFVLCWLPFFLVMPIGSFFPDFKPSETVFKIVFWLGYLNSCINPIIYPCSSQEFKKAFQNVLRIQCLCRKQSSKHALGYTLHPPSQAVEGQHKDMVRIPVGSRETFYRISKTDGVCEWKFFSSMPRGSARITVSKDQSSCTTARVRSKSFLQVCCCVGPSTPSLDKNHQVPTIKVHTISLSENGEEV
Type of test: functional, cell-based.

Test [2] deals with T2, Muscarinic acetylcholine receptor M2 (Homo sapiens, UniProt P08172).
T2 sequence (P08172 whole entry): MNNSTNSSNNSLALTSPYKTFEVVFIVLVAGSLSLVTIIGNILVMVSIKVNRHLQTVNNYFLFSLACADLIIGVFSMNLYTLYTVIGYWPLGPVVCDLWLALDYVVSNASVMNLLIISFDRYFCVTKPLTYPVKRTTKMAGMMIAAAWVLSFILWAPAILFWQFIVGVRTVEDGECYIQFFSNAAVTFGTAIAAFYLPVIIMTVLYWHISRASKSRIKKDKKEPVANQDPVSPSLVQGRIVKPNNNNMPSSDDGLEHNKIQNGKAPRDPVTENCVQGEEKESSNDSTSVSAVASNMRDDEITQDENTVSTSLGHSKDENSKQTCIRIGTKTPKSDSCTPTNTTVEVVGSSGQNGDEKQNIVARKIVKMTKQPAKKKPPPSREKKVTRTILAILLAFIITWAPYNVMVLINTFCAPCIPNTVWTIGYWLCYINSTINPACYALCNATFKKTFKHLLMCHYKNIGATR
Note: assay procedure not described here.

Usually AC50 stands for the concentration giving half of the maximal activity seen. Read a high AC50 as weaker potency. Regarding `CCN(CC)CCCC(C)Nc1c2ccc(Cl)cc2nc2ccc(OC)cc12` (configuration not stated) [QUINACRINE], the AC50 in test [1] was greater than 1000 nM; in test [2] it was 768 nM.
